US6358885B1, “Substituted phenylheterocyclic herbicides” (Mississippi State University, priority 1992, dated 2002)

What was measured:
Test in all cases: Test G preemergence/postemergence greenhouse plant response rating 0 to 100
[1] = system: yellow nutsedge; format: in vivo, Cyperus esculentus; conditions: Rate 125 g/ha, 0 to 100 scale
Text: (§1) Seeds, rhizomes, or plant parts of alfalfa (Medicago ativa), annual bluegrass (Poa annua), bermudagrass (Cynodon dactylon), broadleaf signalgrass (Brachiaria plantaginea), common purslane (Portulaca oleracea), common ragweed (Ambrosia elatior), […] (Paspalum dilatatum), goosegrass (Eleusine indica), guineagrass (Panicum maximum), […] exaltata), johnsongrass (Sorghum halepense), large crabgrass (Digitaria sanguinalis), peanut (Arachis hypoagaea), pitted morningglory (Ipomoea lacunosa), purple nutsedge (Cyperus rotundus), sandbur (Cenchrus echinatus), smooth crabgrass (Digitaria ischaemum) and yellow nutsedge (Cyperus esculentus) were planted into greenhouse pots containing greenhouse planting medium. Each pot contained only one plant species. The test compound was dissolved in a non-phytotoxic solvent and applied preemergence and/or postemergence to the plants. Preemergence applications were made within one day of planting the seeds or plant parts. Postemergence applications were applied when the plants were in the two to four leaf stage (three to twenty cm). Test chemicals were dissolved in a non-phytotoxic solvent and applied preemergence and postemergence to the plants. Untreated control plants and treated plants were placed in the greenhouse and visually evaluated for injury at 13 to 21 days after herbicide application. […] A dash (-) response indicates no test result.

[2] = system: large crabgrass; format: in vivo, Digitaria sanguinalis; conditions: 0 to 100 scale
Text: as §1

[3] = system: goosegrass; format: in vivo, Eleusine indica; conditions: 0 to 100 scale
Text: as §1

[4] = system: common ragweed; format: in vivo, Ambrosia elatior; conditions: 0 to 100 scale
Text: as §1

[5] = system: pitted morningglory; format: in vivo, Ipomoea lacunosa; conditions: 0 to 100 scale
Text: as §1

[6] = system: peanut; format: in vivo, Arachis hypoagaea; conditions: 0 to 100 scale
Text: as §1

[7] = system: annual bluegrass; format: in vivo, Poa annua; conditions: 0 to 100 scale
Text: as §1

[8] = system: guineagrass; format: in vivo, Panicum maximum; conditions: 0 to 100 scale
Text: as §1

[9] = system: smooth crabgrass; format: in vivo, Digitaria ischaemum; conditions: 0 to 100 scale
Text: as §1

[10] = system: broadleaf signalgrass; format: in vivo, Brachiaria plantaginea; conditions: 0 to 100 scale
Text: as §1

[11] = system: bermudagrass; format: in vivo, Cynodon dactylon; conditions: 0 to 100 scale
Text: as §1

[12] = system: itchgrass; format: in vivo, Rottboellia exaltata; conditions: 0 to 100 scale
Text: as §1

[13] = system: sandbur; format: in vivo, Cenchrus echinatus; conditions: 0 to 100 scale
Text: as §1

[14] = system: common purslane; format: in vivo, Portulaca oleracea; conditions: 0 to 100 scale
Text: as §1

[15] = system: johnsongrass; format: in vivo, Sorghum halepense; conditions: 0 to 100 scale
Text: as §1

[16] = system: dallisgrass; format: in vivo, Paspalum dilatatum; conditions: 0 to 100 scale
Text: as §1

SMILES: CCCN1C(=O)COc2cc(F)c(-c3nn4c(c3Cl)CCCC4)cc21 [Compound 32]
- Plant response rating, Yellow Nutsedge ([1]; POSTEMERGENCE): 0
- Plant response rating, Yellow Nutsedge ([1]; PREEMERGENCE): 0
- Plant response rating, Large Crabgrass ([2]; POSTEMERGENCE, Rate 125 g/ha): 0
- Plant response rating, Large Crabgrass ([2]; POSTEMERGENCE, Rate 250 g/ha): 0
- Plant response rating, Large Crabgrass ([2]; PREEMERGENCE, Rate 125 g/ha): 0
- Plant response rating, Large Crabgrass ([2]; PREEMERGENCE, Rate 250 g/ha): 0
- Plant response rating, Goosegrass ([3]; POSTEMERGENCE, Rate 125 g/ha): 0
- Plant response rating, Goosegrass ([3]; POSTEMERGENCE, Rate 250 g/ha): 0
- Plant response rating, Goosegrass ([3]; PREEMERGENCE, Rate 125 g/ha): 0
- Plant response rating, Goosegrass ([3]; PREEMERGENCE, Rate 250 g/ha): 0
- Plant response rating, Cmn Ragweed ([4]; POSTEMERGENCE, Rate 125 g/ha): 100
- Plant response rating, Cmn Ragweed ([4]; POSTEMERGENCE, Rate 250 g/ha): 60
- Plant response rating, Cmn Ragweed ([4]; PREEMERGENCE, Rate 125 g/ha): 0
- Plant response rating, Cmn Ragweed ([4]; PREEMERGENCE, Rate 250 g/ha): 0
- Plant response rating, Pit Morninglory ([5]; POSTEMERGENCE, Rate 125 g/ha): 70
- Plant response rating, Pit Morninglory ([5]; POSTEMERGENCE, Rate 250 g/ha): 30
- Plant response rating, Pit Morninglory ([5]; PREEMERGENCE, Rate 125 g/ha): 0
- Plant response rating, Pit Morninglory ([5]; PREEMERGENCE, Rate 250 g/ha): 0
- Plant response rating, Peanuts ([6]; POSTEMERGENCE, Rate 125 g/ha): 0
- Plant response rating, Peanuts ([6]; POSTEMERGENCE, Rate 250 g/ha): 0
- Plant response rating, Peanuts ([6]; PREEMERGENCE, Rate 125 g/ha): 0
- Plant response rating, Peanuts ([6]; PREEMERGENCE, Rate 250 g/ha): 0
- Plant response rating, Ann Bluegrass ([7]; POSTEMERGENCE, Rate 125 g/ha): 0
- Plant response rating, Ann Bluegrass ([7]; POSTEMERGENCE, Rate 250 g/ha): 0
- Plant response rating, Ann Bluegrass ([7]; PREEMERGENCE, Rate 125 g/ha): 0
- Plant response rating, Ann Bluegrass ([7]; PREEMERGENCE, Rate 250 g/ha): 0
- Plant response rating, Guineagrass ([8]; POSTEMERGENCE, Rate 125 g/ha): 0
- Plant response rating, Guineagrass ([8]; POSTEMERGENCE, Rate 250 g/ha): 0
- Plant response rating, Guineagrass ([8]; PREEMERGENCE, Rate 125 g/ha): 0
- Plant response rating, Guineagrass ([8]; PREEMERGENCE, Rate 250 g/ha): 0
- Plant response rating, Smooth Crabgras ([9]; POSTEMERGENCE, Rate 125 g/ha): 0
- Plant response rating, Smooth Crabgras ([9]; POSTEMERGENCE, Rate 250 g/ha): 0
- Plant response rating, Smooth Crabgras ([9]; PREEMERGENCE, Rate 125 g/ha): 0
- Plant response rating, Smooth Crabgras ([9]; PREEMERGENCE, Rate 250 g/ha): 0
- Plant response rating, Brdlf Sgnlgrass ([10]; POSTEMERGENCE, Rate 125 g/ha): 0
- Plant response rating, Brdlf Sgnlgrass ([10]; POSTEMERGENCE, Rate 250 g/ha): 0
- Plant response rating, Brdlf Sgnlgrass ([10]; PREEMERGENCE, Rate 125 g/ha): 0
- Plant response rating, Brdlf Sgnlgrass ([10]; PREEMERGENCE, Rate 250 g/ha): 0
- Plant response rating, Bermudagrass ([11]; POSTEMERGENCE, Rate 125 g/ha): 0
- Plant response rating, Bermudagrass ([11]; POSTEMERGENCE, Rate 250 g/ha): 0
- Plant response rating, Bermudagrass ([11]; PREEMERGENCE, Rate 125 g/ha): 0
- Plant response rating, Bermudagrass ([11]; PREEMERGENCE, Rate 250 g/ha): 0
- Plant response rating, Itchgrass ([12]; POSTEMERGENCE, Rate 125 g/ha): 0
- Plant response rating, Itchgrass ([12]; POSTEMERGENCE, Rate 250 g/ha): 0
- Plant response rating, Itchgrass ([12]; PREEMERGENCE, Rate 125 g/ha): 0
- Plant response rating, Itchgrass ([12]; PREEMERGENCE, Rate 250 g/ha): 0
- Plant response rating, S. Sandbur ([13]; POSTEMERGENCE, Rate 125 g/ha): 0
- Plant response rating, S. Sandbur ([13]; POSTEMERGENCE, Rate 250 g/ha): 0
- Plant response rating, S. Sandbur ([13]; PREEMERGENCE, Rate 125 g/ha): 0
- Plant response rating, S. Sandbur ([13]; PREEMERGENCE, Rate 250 g/ha): 0
- Plant response rating, Cmn Purslane ([14]; POSTEMERGENCE, Rate 125 g/ha): 100
- Plant response rating, Cmn Purslane ([14]; POSTEMERGENCE, Rate 250 g/ha): 80
- Plant response rating, Cmn Purslane ([14]; PREEMERGENCE, Rate 125 g/ha): 0
- Plant response rating, Cmn Purslane ([14]; PREEMERGENCE, Rate 250 g/ha): 100
- Plant response rating, Johnsongrass ([15]; POSTEMERGENCE, Rate 125 g/ha): 0
- Plant response rating, Johnsongrass ([15]; POSTEMERGENCE, Rate 250 g/ha): 0
- Plant response rating, Johnsongrass ([15]; PREEMERGENCE, Rate 125 g/ha): 0
- Plant response rating, Johnsongrass ([15]; PREEMERGENCE, Rate 250 g/ha): 0
- Plant response rating, Dallisgrass ([16]; POSTEMERGENCE, Rate 125 g/ha): 0
- Plant response rating, Dallisgrass ([16]; POSTEMERGENCE, Rate 250 g/ha): 0
- Plant response rating, Dallisgrass ([16]; PREEMERGENCE, Rate 125 g/ha): 0
- Plant response rating, Dallisgrass ([16]; PREEMERGENCE, Rate 250 g/ha): 0
